These results are taken from patent publication US20160097044A1, “Antimicrobial Enzyme Fusions Reduce Resistance and Kill Intracellular Staphylococcus aureus” (The United States of America, as Represented by the …, priority 2014, published 2016).

In series [1] the test system is intracellular S. aureus Newbould 305 in bovine mammary epithelial cell line (MAC-T). Put plainly: Intracellular S. aureus eradication assay in MAC-T cells. It is filed as cell-based. As to conditions: 25 μg in 1 ml DMEM, 2.5 h. An excerpt: (§1) FIGS. 5a-5e depict peptidoglycan hydrolase-protein transduction domain (PGH-PTD) eradication of intracellular S. aureus in cultured cells. Cultured cells were infected, treated with gentamicin to kill extracellular S. aureus, and then treated with the peptidoglycan hydrolases indicated. All results are standardized to the gentamicin (GENT) only control. Nomenclature of the peptidoglycan hydrolase constructs is as in FIG. 1. Asterisks indicate statistical significance detected with single factor ANOVA (α=0.05) with paired t-test posthoc analyses α=0.05 adjusted with Sidák correction for multiple comparisons (for all cases p<0.01). […] Error bars represent SEM. […] Yellow staining in the combined panel represents intracellular co-localization (in a single plane as determined by z-stack analysis) of both S. aureus and K-L-PTD1 (blue arrow). […]
(§2) Three similar intracellular S. aureus eradication assays from three different labs were optimized for (A) a cultured bovine mammary epithelial cell line (MAC-T, Nexia Biotechnologies, Quebec, Canada; Almeida, supra), (B) primary C57BL/6 mouse-derived osteoblasts (mOBs) (McCall et al. 2008. J. Bone Miner. Res. 23: 30-40) or (C) human brain microvascular endothelial cells (hBMEC; Stins, supra). […] The cell lysate was subjected to serial dilution plating, and the resultant CFUs were counted and normalized to the gentamicin control for each assay. […]

In series [2] the test system is intracellular S. aureus strain ISP479C in human brain microvascular endothelial cells (hBMEC). Put plainly: Intracellular S. aureus eradication assay in hBMEC. As to conditions: 5 μg/ml, 1 h. It is filed as cell-based.
Excerpt: as §1, §2

In series [3] the test system is S. aureus Newbould 305. Put plainly: Turbidity reduction assay. It is filed as cell-based. As to conditions: 1 μM enzyme, cells at OD600nm 1.0, FIG. 6a. The procedure: (§3) FIG. 6a depicts the specific activity of peptidoglycan hydrolase fusion constructs in vitro in a turbidity reduction assay with S. aureus Newbould 305 resuspended in lysis buffer to an OD600nm of 1.0 and treated with 1 μM final concentrations of each peptidoglycan hydrolase. The maximum specific activity for three experiments are represented as an average with SEM error bars. FIG. 6b depicts the bacterial burden in mice with mastitis treated with recombinant peptidoglycan hydrolases. Colony Forming Units (CFUs) from infected murine mammary glands following a single treatment with 50 μl of 25 μM peptidoglycan hydrolase (1.25 nmol). Each data point represents the average of duplicate bacterial platings. The horizontal bars represent the average CFU/mg for each group. FIG. 6c illustrates the TNFα response in mice with mastitis that were treated with peptidoglycan hydrolases. Data represents a minimum of 7 measurements in duplicate. Log TNFα was used for statistical analysis. Single asterisks indicate a significant difference from buffer control (p<0.05); double asterisks indicate a significant difference from the parental enzyme (p<0.05).
FIG. 7 depicts a turbidity reduction assay of select peptidoglycan hydrolases against S. aureus Newbould 305. Bacterial cells were resuspended in lysis buffer to an OD600nm of 1.0 and lysed with 1 μM final concentrations of each peptidoglycan hydrolase. The maximum rate of ΔOD of three experiments are represented as an average with error bars representing SEM. Double asterisks indicate significant difference from parental. Mean comparisons were performed with one way ANOVA (P=3.3×10^−5) with t test post hoc analysis with Sidák adjusted alpha (p<0.01).

In series [4] the test system is S. aureus Newbould 305. Put plainly: Murine model of mastitis, bacterial load. It is filed as in vivo, C57BL6/SJL mice. As to conditions: for bacterial load / clearance of mammary glands (in words): single 1.25 nmoles intramammary infusion 30 minutes post infection, 18 h. On the procedure:
as §3
To evaluate the efficacy of purified, individually administered peptidoglycan hydrolases in a murine model of bovine mastitis, female C57BL6/SJL mice were challenged by the intramammary route with 100 CFU S. aureus Newbould 305 in 50 μl buffer. A single 1.25 nmoles intramammary infusion of each desired peptidoglycan hydrolase (50 μl of a 25 μM solution) or 50 μl PBS was given 30 minutes post infection [with up to six glands treated per animal, each gland receiving a unique treatment] as described earlier (Schmelcher et al. 2012. Appl. Environ. Microbiol. 78:2297-2305; Kerr et al. 2001. Nat. Biotechnol. 19:66-70). Dams were euthanized 18 h post infusion, the mammary glands were aseptically dissected, and portions of the gland were used for determination of bacterial load and TNFα concentrations, as described previously (Schmelcher et al., supra).
Statistical analysis: The variables were analyzed as two-factor mixed models with Treatment as the factor and Mouse as random Blocks. This model […] within mouse correlations. Log(TNFα) was used. The variance grouping technique was used for log CFU and log TNFα to correct for variance heterogeneity. Means comparisons were done with Sidak adjusted p-values so that the experiment-wise error was 0.05. Log(TNFα) is back-transformed to the original units for graphing.

In series [5] the test system is intracellular S. aureus strain UAMS-1 in murine calvaria. Put plainly: Ex vivo neonatal mouse calvaria intracellular eradication. It is filed as cell-based. On the procedure: (§4) Neonatal mouse whole calvaria were treated for 4 hours with chimeric peptidoglycan hydrolases or buffer alone, 24 hours post inoculation with GFP-expressing S. aureus. Calvaria were embedded in freeze media, sectioned, and subjected to fluorescence imaging. The image shown is a representative figure for triplicate sections of three separate calvaria. FIG. 8b depicts fluorescence intensity from these sections measured in ImageJ and defined as arbitrary fluorescence standardized to the untreated control. Error bars represent SEM of four replicate experiments. FIG. 8c depicts ex-vivo intracellular S. aureus eradication. Infected calvaria were homogenized and CFU were counted post treatment. Error bars represent SEM. FIG. 8d depicts a murine model of staphylococcal osteomyelitis. C57BL/6J mice were anesthetized and their femurs were surgically exposed. A trough was drilled through the bone cortex and the damaged bone sites were inoculated with 1×10^3 CFU S. aureus in agarose beads. After 24 hours, mice were treated (i.m. to site of infection) twice in a 24 h period with PBS or 5 mg/kg of triple fusion K-L or K-L-PTD1. The femurs were removed, homogenized, and plated to quantify the bacterial load. Bars indicate the average CFU recovered (N=6). […] Asterisks represent statistical significance as determined by one-way ANOVA followed by Tukey's posthoc test.
To examine the intracellular uptake and eradication in murine osteoblast-containing tissue samples, both ex vivo calvaria (skull cap), and in vivo femur injury models were tested. Calvaria were isolated from neonatal mice and infected with UAMS-1 strain of S. aureus (1×10^6 bacteria/calvaria) for 2 h at 37° C. in osteoblast growth medium in the absence of antibiotics. Following 3× washes with PBS, calvaria were exposed to 50 μg/ml of gentamicin for 15 min to kill extracellular bacteria and further cultured in gentamicin containing osteoblast growth media. After 24 h later, calvaria were treated with peptidoglycan hydrolases (5 μg/ml) or gentamicin only control for 2 h. Lysis buffer containing 0.05% trypsin and 0.25% Triton X-100 was used to homogenize the calvaria, the homogenates were quantitatively plated on LB agar plates, and the CFU were enumerated after 24 h. The data represents triplicate determinants of two separate experiments.
Calvaria were isolated, and infected as described above using GFP-tagged UAMS-1 strain of S. aureus. Two hours post-infection, calvaria were washed with PBS followed by a 15 minutes treatment with 50 μg/ml gentamicin to kill extracellular bacteria. 24 hours post-infection, calvaria were treated with 5 μg/ml peptidoglycan hydrolases or gentamicin only control for two hours and embedded in Tissue-Tek O.C.T compound (Sakura, Torrance, Calif.). […]

The subject of a further series is S. aureus. Put plainly: Murine model of staphylococcal osteomyelitis (femur). It is filed as in vivo, C57BL/6J mice. As to conditions: 5 mg/kg i.m. at site of infection, twice in 24 h, N=6. On the procedure:
as §4, with “A trough was drilled through the bone cortex and the damaged bone sites were inoculated with 1×10^3 CFU S. aureus in agarose beads. After 24 hours, mice were treated (i.m. to site of infection) twice in a 24 h period with PBS or 5 mg/kg of triple fusion K-L or K-L-PTD1.” left out, “load.” for “load. Bars indicate the average CFU recovered (N=6).”
We utilized a previously described (Marriott, supra) murine model of staphylococcal osteomyelitis that reproduces the clinical and gross pathological phases of inflammatory bone diseases, such as human post-traumatic osteomyelitis. […] Asterisks represent statistical significance as determined by one-way ANOVA followed by Tukey's posthoc test.

The next series deals with TNFα. Put plainly: Murine model of mastitis, TNFα response. It is filed as in vivo, C57BL6/SJL mice. As to conditions: mice with mastitis. The procedure:
as §3, with “(p<0.05). […]” for “(p<0.05).”
Statistical analysis: The variables were analyzed as two-factor mixed models with Treatment as the factor and Mouse as random Blocks. […]

Regarding “1-Sigma: commercial lysostaphin (Sigma-Aldrich, St. Louis, Mo.)”, the “intracellular S. aureus CFUs relative to gentamicin only control” value is “Neither commercial lysostaphin (1-Sigma; Sigma-Aldrich, St. Louis, Mo.) nor the C-terminal His6-tagged lysostaphin (construct 1) were able to decrease the intracellular CFUs” in series [1] and “Neither commercial lysostaphin (1-Sigma; Sigma-Aldrich, St. Louis, Mo.) nor the C-terminal His6-tagged lysostaphin (construct 1) were able to decrease the intracellular CFUs” in series [2].
On to “K-L-PTD1: triple fusion K-L with C-terminal PTD 1 (Antp 43-58); SEQ ID NO:53, protein SEQ ID NO:54”, for which the “turbidity reduction (in vitro lytic) activity” value with S. aureus Newbould 305 [3] is reported as “reduced the in vitro activity”. For the same substance, in the series with S. aureus Newbould 305 [4] (in vivo, compared with triple fusion K-L), the “greater CFU reduction than triple fusion K-L in the mastitis model” value is on record as ~3 orders of magnitude. In the series on S. aureus Newbould 305 [4], the “bacterial load / clearance of mammary glands (in words)” value is “clearance of the mammary gland to a level equivalent to that of lysostaphin alone or L-PTD1”. The “live bacteria (CFU) recovered from calvaria” value in series [5] (5 μg/ml for 2 h, homogenized calvaria) is reported as “able to reduce the number of live bacteria recovered from sectioned calvaria”. The “elimination of GFP-labeled intracellular S. aureus (fluorescence)” value in series [5] (5 μg/ml, 24 hours post-infection, sectioned calvaria) was “able to eliminate GFP-labeled intracellular S. aureus strain UAMS-1 from murine calvaria”. In the series with S. aureus, the “bacterial load in femur compared to no treatment” value is reported as “significantly reduced bacterial load as compared to no treatment”.
“L-PTD1: lysostaphin-His6 with C-terminal PTD 1 (Antp 43-58); SEQ ID NO:9”: in the series on S. aureus Newbould 305 [3], the “turbidity reduction (in vitro lytic) activity” value is “reduced the in vitro activity”. Also, in the series with S. aureus Newbould 305 [4], the “bacterial load / clearance of mammary glands (in words)” value is given as “further decreased the mean bacterial load”. For the same substance, the “TNFα response (in words)” value in the series with TNFα is “further decreased the mean bacterial load and TNFα concentration”.
